Measurements reported in US20230071840A1, “HETEROCYCLIC GLP-1 AGONISTS” (Gasherbrum Bio, Inc., priority 2020, published 2023).
Where two headings read alike, the source gives them in different places.

Biological target: GLP-1 Receptor (Homo sapiens, UniProt P43220)
Assay: GLP-1R agonist cAMP stimulation assay (HEK293/GLP1R/CRE-LUC cells, cAMP dynamic 2 kit)
Assay type: cell-based
Details: HEK293/CRE-Luc cell line stably expressing the GLP-1 Receptor, 30 min incubation at 37° C.
Procedure, shortened: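 HEK293/CRE-Luc cells stably expressing human GLP-1R stimulated 30 min at 37 °C, 5% CO2. cAMP detected with HTRF cAMP-d2/anti-cAMP cryptate reagents after 1 h at room temperature; % activity normalised between vehicle and maximal control.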

[1] = read-out: GLP1R cAMP Stimulation DR: EC50

GLP-1 Receptor, sequence (P43220 24-463, species assumed): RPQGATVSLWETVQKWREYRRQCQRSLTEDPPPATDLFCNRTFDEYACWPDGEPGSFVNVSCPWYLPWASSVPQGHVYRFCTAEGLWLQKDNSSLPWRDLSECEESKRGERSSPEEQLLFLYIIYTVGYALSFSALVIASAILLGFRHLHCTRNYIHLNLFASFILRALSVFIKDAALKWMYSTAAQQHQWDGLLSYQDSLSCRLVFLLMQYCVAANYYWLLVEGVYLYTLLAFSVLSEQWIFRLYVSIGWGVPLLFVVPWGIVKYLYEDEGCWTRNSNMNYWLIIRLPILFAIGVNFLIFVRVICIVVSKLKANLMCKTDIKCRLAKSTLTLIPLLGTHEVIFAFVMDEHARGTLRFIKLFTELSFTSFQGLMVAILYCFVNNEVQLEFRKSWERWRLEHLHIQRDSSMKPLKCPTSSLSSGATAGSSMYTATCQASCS

Row | SMILES | EC50 [1] [nM] | EC50 (read-out: GLP1R cAMP Stimulation DR: pEC50 (converted)) [nM]
1 | O=C(O)c1ccc2nc(CN3CCC(Oc4cncc(Cc5ccc(Cl)cc5)n4)CC3)n(C[C@@H]3CCO3)c2n1 [Compound 153a, 2-{[4-({6-[(4-chlorophenyl)methyl]pyrazin-2-yl}oxy)piperidin-1-yl]methyl}-3-{[(2S)-oxetan-2-yl]methyl}-3H-imidazo[4,5-b]pyridine-5-carboxylic acid] | 0.14 | 0.158
2 | O=C(O)c1ccc2nc(CC3CCN(C(=O)c4cccc(Cc5ccc(Cl)cc5F)n4)CC3)n(C[C@@H]3CCO3)c2n1 [Compound 106a, (S)-2-((1-(6-(4-Chloro-2-fluorobenzyl)picolinoyl)piperidin-4-yl)methyl)-3-(oxetan-2-ylmethyl)-3H-imidazo[4,5-b]pyridine-5-carboxylic acid] | 463 | 
3 | O=C(O)c1ccc2nc(CN3CCC(Oc4ccnc(Cc5ccc(Cl)cc5F)n4)CC3)n(C[C@@H]3CCO3)c2c1 [Compound 160a, 2-{[4-({2-[(4-chloro-2-fluorophenyl)methyl]pyrimidin-4-yl}oxy)piperidin-1-yl]methyl}-1-{[(2S)-oxetan-2-yl]methyl}-1H-1,3-benzodiazole-6-carboxylic acid] | 0.12 | 
4 | N#CC1(Cn2c(CN3CCC(Oc4ccnc(Cc5ccc(Cl)cc5F)n4)CC3)nc3ccc(C(=O)O)cc32)CC1 [Compound 162, 2-{[4-({2-[(4-chloro-2-fluorophenyl)methyl]pyrimidin-4-yl}oxy)piperidin-1-yl]methyl}-1-[(1-cyanocyclopropyl)methyl]-1H-1,3-benzodiazole-6-carboxylic acid] | 0.075 | 
